Laboratory results: ChEMBL document CHEMBL1126154, “Pyrrole mannich bases as potential antipsychotic agents” (J Med Chem, 1992)

What was measured:
[1] = molecular target: Serotonin 1 (5-HT1) receptor (Rattus norvegicus, UniProt P28564+P30940+P19327+P28565); experiment: The compound was tested for its binding affinity towards 5-hydroxytryptamine 1 receptor by displacing [3H]5-HT radioligand in rat cerebral cortex; type: tissue-based
[2] = molecular target: Serotonin 2 (5-HT2) receptor (Rattus norvegicus, UniProt P30994+P08909+P14842); experiment: The compound was tested for its binding affinity towards 5-hydroxytryptamine 2 receptor by displacing [3H]ketanserin radioligand in rat cerebral cortex; type: tissue-based
[3] = molecular target: T1, Adrenergic receptor alpha-1 (Rattus norvegicus, UniProt P15823+P23944+P43140); experiment: The compound was tested for its binding affinity towards Alpha-1 adrenergic receptor by displacing [3H]WB-4101 radioligand in rat cerebral cortex; type: tissue-based
T1 sequence (P15823 whole entry): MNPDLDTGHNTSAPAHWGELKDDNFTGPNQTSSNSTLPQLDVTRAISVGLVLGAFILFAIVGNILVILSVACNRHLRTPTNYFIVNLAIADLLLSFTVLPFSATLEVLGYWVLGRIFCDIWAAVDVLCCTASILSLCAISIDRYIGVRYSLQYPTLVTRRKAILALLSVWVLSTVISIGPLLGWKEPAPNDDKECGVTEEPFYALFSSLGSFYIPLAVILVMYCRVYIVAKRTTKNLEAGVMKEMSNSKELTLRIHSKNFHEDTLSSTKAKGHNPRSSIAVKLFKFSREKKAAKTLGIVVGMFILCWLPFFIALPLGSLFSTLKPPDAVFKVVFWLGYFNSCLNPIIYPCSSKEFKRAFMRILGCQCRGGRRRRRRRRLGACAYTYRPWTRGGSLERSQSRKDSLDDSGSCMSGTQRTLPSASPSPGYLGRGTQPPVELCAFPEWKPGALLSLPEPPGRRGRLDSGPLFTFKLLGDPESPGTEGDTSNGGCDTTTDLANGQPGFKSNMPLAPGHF
T1 sequence (P23944 whole entry): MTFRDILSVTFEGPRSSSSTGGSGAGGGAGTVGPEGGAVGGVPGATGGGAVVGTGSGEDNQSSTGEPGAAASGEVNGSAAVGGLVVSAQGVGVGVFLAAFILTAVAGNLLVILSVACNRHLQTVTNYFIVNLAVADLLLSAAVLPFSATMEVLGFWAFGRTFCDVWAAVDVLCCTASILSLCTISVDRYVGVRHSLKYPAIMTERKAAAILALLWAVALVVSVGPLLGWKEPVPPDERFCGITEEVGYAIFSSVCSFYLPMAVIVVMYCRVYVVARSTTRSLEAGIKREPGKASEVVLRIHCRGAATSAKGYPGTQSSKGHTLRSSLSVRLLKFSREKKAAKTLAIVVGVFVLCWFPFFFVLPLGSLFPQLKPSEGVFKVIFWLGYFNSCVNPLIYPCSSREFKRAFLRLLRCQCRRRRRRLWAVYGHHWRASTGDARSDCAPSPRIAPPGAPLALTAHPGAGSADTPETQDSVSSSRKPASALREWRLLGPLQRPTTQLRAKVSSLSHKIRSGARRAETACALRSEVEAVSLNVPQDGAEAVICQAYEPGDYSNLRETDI
T1 sequence (P43140 whole entry): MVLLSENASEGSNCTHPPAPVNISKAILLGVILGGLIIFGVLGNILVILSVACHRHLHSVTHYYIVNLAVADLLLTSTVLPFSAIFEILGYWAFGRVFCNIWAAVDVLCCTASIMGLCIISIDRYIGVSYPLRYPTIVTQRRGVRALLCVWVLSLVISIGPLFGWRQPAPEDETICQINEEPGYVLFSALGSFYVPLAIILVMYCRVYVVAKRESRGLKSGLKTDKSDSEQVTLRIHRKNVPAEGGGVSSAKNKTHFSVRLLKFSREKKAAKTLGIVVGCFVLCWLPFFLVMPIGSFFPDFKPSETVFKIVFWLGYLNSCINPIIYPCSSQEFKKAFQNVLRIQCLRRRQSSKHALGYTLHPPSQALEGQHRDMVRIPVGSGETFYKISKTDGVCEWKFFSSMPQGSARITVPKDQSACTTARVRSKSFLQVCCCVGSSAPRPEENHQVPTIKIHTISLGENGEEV

Rattus norvegicus [4] = experiment: The percentage production of catalepsy in rat at a dose of 57 mg/kg ip.; type: functional
Rattus norvegicus [5] = experiment: Antipsychotic activity at a dose 10 times the ED50 value for CAR block for production of catalepsy in the rat (following i.p. dosing); type: functional; conditions: ip
Rattus norvegicus [6] = experiment: The compound was measured at a dose 10 times the ED50 value for CAR block for production of catalepsy in the rat via oral administration.; type: functional
Rattus norvegicus [7] = experiment: The percentage production of catalepsy in rat at a dose of 90 mg/kg ip.; type: functional
Rattus norvegicus [8] = experiment: The percentage production of catalepsy in rat at a dose of 27 mg/kg ip.; type: functional
Rattus norvegicus [9] = experiment: The percentage production of catalepsy in rat at a dose of 100 mg/kg ip.; type: functional
Rattus norvegicus [10] = experiment: The percentage production of catalepsy in rat at a dose of 54 mg/kg ip.; type: functional
[11] = molecular target: T2, 5-hydroxytryptamine receptor 1A (Rattus norvegicus, UniProt P19327); experiment: Binding affinity towards 5-hydroxytryptamine 1A receptor by displacing [3H]WB-4101 from rat hippocampus; type: tissue-based
T2 sequence (P19327 whole entry): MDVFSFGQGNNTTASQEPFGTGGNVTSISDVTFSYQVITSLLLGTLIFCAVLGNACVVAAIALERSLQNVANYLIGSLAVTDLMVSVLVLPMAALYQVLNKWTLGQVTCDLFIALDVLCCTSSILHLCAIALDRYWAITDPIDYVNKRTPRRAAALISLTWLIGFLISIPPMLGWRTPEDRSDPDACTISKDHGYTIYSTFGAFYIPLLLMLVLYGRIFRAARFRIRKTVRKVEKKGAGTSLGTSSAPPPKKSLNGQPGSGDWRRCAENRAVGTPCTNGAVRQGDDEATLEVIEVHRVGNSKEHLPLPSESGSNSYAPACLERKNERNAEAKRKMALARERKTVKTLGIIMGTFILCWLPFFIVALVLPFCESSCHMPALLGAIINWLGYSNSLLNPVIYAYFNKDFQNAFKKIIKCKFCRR

[12] = molecular target: 5-hydroxytryptamine receptor 1B (Rattus norvegicus, UniProt P28564); experiment: The compound was tested for its binding affinity towards 5-hydroxytryptamine 1B receptor by displacing [3H]serotonin radioligand in rat cerebral cortex; type: tissue-based
Sequence of 5-hydroxytryptamine receptor 1B (P28564 whole entry): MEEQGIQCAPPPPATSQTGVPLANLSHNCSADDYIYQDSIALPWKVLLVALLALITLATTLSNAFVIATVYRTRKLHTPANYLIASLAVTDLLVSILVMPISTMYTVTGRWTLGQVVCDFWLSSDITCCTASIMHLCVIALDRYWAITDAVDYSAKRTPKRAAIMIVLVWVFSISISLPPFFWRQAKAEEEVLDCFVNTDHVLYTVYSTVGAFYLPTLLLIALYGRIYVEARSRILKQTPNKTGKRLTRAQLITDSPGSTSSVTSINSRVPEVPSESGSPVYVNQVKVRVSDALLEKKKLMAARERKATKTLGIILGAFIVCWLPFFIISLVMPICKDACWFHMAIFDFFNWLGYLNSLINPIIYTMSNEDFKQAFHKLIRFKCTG

Rattus norvegicus [13] = experiment: The percentage production of catalepsy in rat at a dose of 37 mg/kg ip.; type: functional
Rattus norvegicus [14] = experiment: The percentage production of catalepsy in rat at a dose of 20 mg/kg ip.; type: functional
Rattus norvegicus [15] = organism: Rattus norvegicus; experiment: ED50 value for catalepsy indicates the dose required to produce a 50% of maximum catalepsy score.; type: functional
Rattus norvegicus [16] = experiment: The percentage production of catalepsy in rat at a dose of 70 mg/kg ip.; type: functional
D(2) dopamine receptor = D(2) dopamine receptor (Rattus norvegicus, UniProt P61169); experiment: The compound was tested for its binding affinity towards Dopamine receptor D2 by displacing [3H]spiperone radioligand in rat striatum
Sequence of D(2) dopamine receptor (P61169 whole entry): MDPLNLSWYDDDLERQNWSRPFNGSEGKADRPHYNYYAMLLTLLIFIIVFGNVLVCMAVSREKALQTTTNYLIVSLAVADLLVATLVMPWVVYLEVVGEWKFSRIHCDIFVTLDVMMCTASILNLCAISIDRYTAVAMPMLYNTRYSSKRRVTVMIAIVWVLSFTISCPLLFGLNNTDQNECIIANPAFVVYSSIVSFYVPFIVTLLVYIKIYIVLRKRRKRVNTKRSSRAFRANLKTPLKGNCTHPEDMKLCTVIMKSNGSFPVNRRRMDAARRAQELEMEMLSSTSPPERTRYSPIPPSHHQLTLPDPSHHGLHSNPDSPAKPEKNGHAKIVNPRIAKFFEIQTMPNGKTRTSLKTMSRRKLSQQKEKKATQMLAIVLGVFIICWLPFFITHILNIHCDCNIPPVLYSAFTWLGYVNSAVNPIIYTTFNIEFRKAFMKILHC

Rattus norvegicus [17] = experiment: The percentage production of catalepsy in rat at a dose of 50 mg/kg ip.; type: functional
Rattus norvegicus [18] = organism: Rattus norvegicus; experiment: ED50 value for catalepsy indicates the dose required to produce a 50% of maximum catalepsy score. parentheses; type: functional
[19] = Rattus norvegicus, po, read-out: ED50

| Structure (SMILES) | Ki [1] | Ki [2] | Ki [3] | ED50 (Rattus norvegicus [5]) | ED50 (Rattus norvegicus [6]; [19]) | also measured |
| --- | --- | --- | --- | --- | --- | --- |
| CC(C)Oc1ccccc1N1CCN(Cc2ccc(CN3CCCCCC3=O)n2C)CC1 | 68.8 nM | 1000 nM | 16.3 nM | 5.7 mg/kg | 18.9 mg/kg | % catalepsy at 57 mg/kg (Rattus norvegicus [4]): 26% |
| CC(C)c1ccccc1N1CCN(Cc2ccc(CN3CCCCC3=O)n2C)CC1 | 41.3 nM | 137 nM | – | 8.9 mg/kg | > 30 mg/kg | % catalepsy at 90 mg/kg (Rattus norvegicus [7]): 19% |
| CC(C)Oc1ccccc1N1CCN(Cc2ccc(CN3CCCC3=O)n2C)CC1 | 120 nM | 386 nM | 7.3 nM | 2.2 mg/kg | > 20 mg/kg | % catalepsy at 27 mg/kg (Rattus norvegicus [8]): 52% |
| CC(C)c1ccccc1N1CCN(Cc2ccc(CN3CCCCCC3=O)n2C)CC1 | 82.1 nM | 110 nM | 53.9 nM | 10 mg/kg | > 30 mg/kg | % catalepsy at 100 mg/kg (Rattus norvegicus [9]): 17% |
| CC(C)Oc1ccccc1N1CCN(Cc2ccc(CN3CCCCC3=O)n2C)CC1 [RWJ-25730] | – | 1006 nM | – | – | – | % catalepsy at 54 mg/kg (Rattus norvegicus [10]): 12.1%; ED50 (Rattus norvegicus [6]): 10.4 mg/kg |
| CCC(C)Oc1ccccc1N1CCN(Cc2ccc(CN3CCCCC3=O)n2C)CC1 (configuration not stated) | 29.3 nM | 267 nM | 17.4 nM | 3.7 mg/kg | – | Ki [11]: 1.8 nM; Ki [12]: 45 nM; % catalepsy at 37 mg/kg (Rattus norvegicus [13]): 17% |
| CCOc1ccccc1N1CCN(Cc2ccc(CN3CCCC3=O)n2C)CC1 | 76 nM | 455 nM | 27.5 nM | 1.8 mg/kg | 32 mg/kg | % catalepsy at 20 mg/kg (Rattus norvegicus [14]): 97% |
| CN1CCN(C2=Nc3cc(Cl)ccc3Nc3ccccc32)CC1 [CLOZAPINE] | – | – | – | – | 32.5 mg/kg | ED50 (Rattus norvegicus [15]): > 70 mg/kg; % catalepsy at 70 mg/kg (Rattus norvegicus [16]): 10% |
| Cc1nc2sccn2c(=O)c1CCN1CCC(=C(c2ccc(F)cc2)c2ccc(F)cc2)CC1 [RITANSERIN] | – | – | 49.5 nM | > 3 mg/kg | – | Ki (D(2) dopamine receptor): 53.2 nM |
| Cn1c(CN2CCN(c3cccc(Cl)c3)CC2)ccc1CN1CCCCC1=O | – | – | – | 10.4 mg/kg | – | Ki [12]: 95 nM; % catalepsy at 50 mg/kg (Rattus norvegicus [17]): 28% |
| COc1ccccc1N1CCNCC1 | 28 nM | > 100 nM | – | 5.6 mg/kg | – | ED50 (Rattus norvegicus [18]): > 45 mg/kg |
